In patent US12583868B2, “JAK inhibitors and methods for synthesizing and using thereof” (GALDERMA HOLDING SA, priority 2020, dated 2026):
Read-outs that look alike come from different tables or passages of the source.

Experiments:
[1] = Protein binding analysis (RED), rat plasma; type: in vitro ADME, male Wistar Han rat; settings: 5 μM
Procedure: (§1) The protein binding was assessed in plasma of Human, male balb-c mice, male Wistar Han rat, male Göttingen minipig by rapid equilibrium dialysis (RED) devices. After the plasma and buffer phosphate 50 mM pH7.4 were equilibrated at 37° C., the compound was added to plasma to reach a final concentration of 5 μM. An aliquot of plasma was withdrawn immediately. Equilibration under mild agitation was continued for 4 h. The plasma and buffer were sampled and samples were quenched with 4 volumes of acetonitrile and centrifuged. Supernatant was quantified in HPLC/MS/MS to calculate the recovery and the percentage of compound dissolved in the buffer (unbound) and bound to plasma proteins.

Chrom logD pH 7.4 = type: physicochemical
[2] = Protein binding analysis (RED), mouse plasma; type: in vitro ADME, male balb-c mice; settings: 5 μM
Procedure: as §1

3T3 murine fibroblasts = experiment: Phototoxicity (Neutral red uptake); type: cell-based; settings: 3T3 fibroblasts, 7 J/cm2 UVA/UVB
Procedure: Phototoxicity was evaluated in 3T3 murine fibroblasts. Cells were incubated with different concentrations of test compounds. One plate was then exposed to a dose of 7 J/cm2 (UVA/UVB mimicking usual solar exposure) whereas the other plate was kept in the dark. The treatment medium was then replaced with culture medium and after 24 h cell viability was determined by Neutral red uptake. Concentration leading to 50% decrease of viability was calculated in the absence and in the presence of irradiation. The PIF (photo irritation factor) ratio was then calculated: […]).

Kinetic aq sol = type: physicochemical
[3] = test system: IL-6 induced pSTAT3 in TF-1 cells; experiment: In vitro cellular pSTAT3 assay, IL-6 stimulated TF-1 cells; type: cell-based; settings: Homo sapiens
Procedure: . The flasks were incubated overnight at 37° C., 5% CO2 then seeded in 96 well plates (TPP) at 150000 cells/well in 25 μL. Cells were treated with 5 IL/well of serially diluted compounds in DMSO (final DMSO concentration of 0.1%) and incubated for 30 min at 37° C. IL-6 (6 IL/well, 100 ng/ml as a final concentration in Opti-MEM, Thermofisher, PHC0066) was added to the cell plates and followed by a 30-min incubation at 37° C. Next, cells were lysed by adding 12 μl/well of 4× supplemented lysis buffer, incubated at 4° C. for 30 min under agitation. The samples were processed for the pSTAT3 detection as described by the manufacturer (MSD) with 25 μl of non-diluted cell lysates tested. Compounds were tested in simplicates over 10 three-step dilutions in order to determine their IC50 values.

kinase panel (403) = experiment: Kinase selectivity S35 / S1 at 10 μM; type: binding

## O=S(=O)(N[C@H]1C[C@@H](N2CCOc3cnc4[nH]ccc4c32)C1)C1CN(C2CC2)C1 [Compound E, 1-Cyclopropyl-N-((cis)-3-(2,3-dihydropyrrolo[3′,2′:5,6]pyrido[3,4-b][1,4]oxazin-1(7H)-yl)cyclobutyl)azetidine-3-sulfonamide]
[1]
  rFU: 16%
Chrom logD pH 7.4
  chromatographic logD: 0.8
[2]
  mFU: 28%
3T3 murine fibroblasts
  Phototox: Neg/Neg
Kinetic aq sol
  Kinetic aq sol: 225/ND/TBD microM
[3]; TF-1, cellular assay IL6, read-out: Free IC50
  IC50: 43 nM
[3]; TF-1 cells, IL-6 100 ng/ml, read-out: Cellular Assay: IC50 IL6
  IC50: 9.9 nM
Kinase panel (403)
  Selectivity (S1): number of kinases out of panel: 1/403
